The term inhibition denotes the percentage by which the read-out fell short of the control.

Values joined by “and” are separate entries in the source; they are usually repeats but may differ in a detail not shown here. Equal values may be shown once. Read-outs that look alike come from different tables or passages of the source.

The target of one test is T1, aldose reductase (Bos taurus, UniProt P16116).
T1 construct: preparation of the enzyme from bovine lens; from tissue; host or cells: bovine lens
In words: aldose reductase inhibiting effects in vitro (Table I, IN VITRO). Conditions: for inhibition at 0.04 µM / inhibition at 10 µM / inhibition at 1 µM / inhibition at 0.1 µM: read-out: % Inhibition IN VITRO. Type of test: biochemical, bovine (lens). The text has this:
In the present case the procedure of Hayman and Kinoshita was modified in that the final chromatography step was omitted in the preparation of the enzyme from bovine lens. The results are tabulated in Table I under the heading IN VITRO.

The next test concerns dulcitol accumulation. In words: lowering of dulcitol (galactitol) accumulation in tissues of galactosemic rats (Table I, IN VIVO). Details: species or system rat (Sprague-Dawley). The note with it: galactosemic rats, 4 days; for % Lowering dulcitol accumulation IN VIVO, D: diaphragm; for % Lowering dulcitol accumulation IN VIVO, L: lens. From the text: Such experiments are exemplified hereinbelow after the listing of the following general comments pertaining to these experiments:
(a) Four or more groups of six male rats, […], Sprague-Dawley strain, were used. The first group, the control group, was fed a mixture of laboratory chow (rodent Laboratory Chow, Purina) and […] at 20% (w/w %) concentration. […] The test compound was either admixed to the diet or administered by gavage. In experiments involving compound administration in the diet, the average dose administered was calculated from the actual food intake of the animals in each group. The concentration of galactose in the diet of the treated groups was the same as that for the untreated galactosemic group.
(b) After four days, the animals were killed by decapitation. The eyeballs were removed and punctured with a razor blade; the freed lenses were rolled gently on filter paper and weighed. The sciatic nerves were dissected as completely as possible and weighed. Both tissues when frozen can be kept up to two weeks before being analyzed for galactitol.
Only two minor reagent changes were made: (a) the rinsing mixture was an aqueous 5% (w/v) trichloroacetic acid solution and (b) the stock solution was prepared by dissolving 25 mg of dulcitol in 100 mL of an aqueous trichloroacetic acid solution. [N.B.: For each experiment the average value found in the tissue from rats fed the glucose diet was subtracted from the individual values found in the corresponding tissue in galactose-fed rats to obtain the amount of polyol accumulated.]
The figures under L, N, and D represent the percentage decrease of galactitol accumulation in the tissues of the lens, sciatic nerve, and diaphragm, respectively, for treated rats as compared to untreated rats.

Consider `CCCCOc1ccc2c(C(F)(F)F)c(OC)ccc2c1C(=O)N(C)CC(=O)O` [Example 12, N-[[2-Butoxy-6-methoxy-5-(trifluoromethyl)-1-naphthalenyl]carbonyl]-N-methylglycine], for which, at aldose reductase (4 × 10^-8 M), the inhibition at 0.04 µM came out at 25%. Also, on aldose reductase (10^-5 M), the inhibition at 10 µM worked out at 92%. Also, the inhibition at 1 µM on aldose reductase (10^-6 M) was found to be 88%. Besides, the inhibition at 0.1 µM at aldose reductase (10^-7 M) was found to be 42%. For the same molecule, in the test on dulcitol accumulation (49 mg/kg), the “% Lowering dulcitol accumulation IN VIVO, D” value worked out at 55% and the “% Lowering dulcitol accumulation IN VIVO, L” value was “N.S”.
For `COc1ccc2c(C(F)(F)F)c(OC)ccc2c1C(=O)N(C)CC(=O)O` [OCH3 O OH], the inhibition at 0.04 µM on aldose reductase (4 × 10^-8 M) was found to be 56%; at aldose reductase, 38%. For the same molecule, the inhibition at 10 µM at aldose reductase (10^-5 M) came to 95%; on aldose reductase it was 99%. Further, the “% Inhibition IN VITRO” value was 92% at aldose reductase (10^-6 M); 91% and 62% at aldose reductase (10^-7 M). Besides, the inhibition at 1 µM on aldose reductase (10^-6 M) is 95%. Moreover, the “% Lowering dulcitol accumulation IN VIVO, D” value in the test on dulcitol accumulation (26 mg/kg) is reported as 71%; with dulcitol accumulation (53 mg/kg), “N.S”. Besides, the “% Lowering dulcitol accumulation IN VIVO, L” value in the test with dulcitol accumulation (26 mg/kg) and with dulcitol accumulation (53 mg/kg) was “N.S” throughout.
`CCOC(=O)NC(=O)CN(C)C(=O)c1c(F)ccc2c(C(F)(F)F)c(OC)ccc12` [F O NHCO2 C2 H5, N-[2-[(Ethoxycarbonyl)amino]-2-oxoethyl]-2-fluoro-6-methoxy-N-methyl-5-(trifluoromethyl)-1-naphthalenecarboxamide]: on aldose reductase (10^-5 M), the inhibition at 10 µM came out at 8%. On aldose reductase (10^-6 M), the inhibition at 1 µM stood at 2%. In the test with dulcitol accumulation (22 mg/kg), the “% Lowering dulcitol accumulation IN VIVO, D” value worked out at 55% and the “% Lowering dulcitol accumulation IN VIVO, L” value is “N.S”.
For `COc1ccc2c(C(=O)N(C)CC(=O)O)c(Br)ccc2c1C(F)(F)F` [Example 9, N-[[2-Bromo-6-methoxy-5-(trifluoromethyl)-1-naphthalenyl]carbonyl]-N-methylglycine], the inhibition at 10 µM on aldose reductase (10^-5 M) stood at 95%. Besides, the inhibition at 1 µM at aldose reductase (10^-6 M) is 90%. Moreover, the inhibition at 0.1 µM on aldose reductase (10^-7 M) was 63%. In the test on dulcitol accumulation (97 mg/kg), the “% Lowering dulcitol accumulation IN VIVO, D” value came to 84% and the “% Lowering dulcitol accumulation IN VIVO, L” value is on record as 8%.
On to `COc1ccc2c(C(=O)N(C)CC(=O)O)c(F)ccc2c1C(F)(F)F` [F O OH, N-[[2-Fluoro-6-methoxy-5-(trifluoromethyl)-1-naphthalenyl]carbonyl]-N-methylglycine], for which the inhibition at 0.04 µM on aldose reductase (4 × 10^-8 M) amounted to 49%. Further, the inhibition at 0.1 µM at aldose reductase (10^-7 M) stood at 80%. Besides, on aldose reductase, the inhibition at 1 µM worked out at 93% and the inhibition at 10 µM stood at 94%. For the same molecule, in the test with dulcitol accumulation (52 mg/kg), the “% Lowering dulcitol accumulation IN VIVO, L” value is 15%. Moreover, the “% Lowering dulcitol accumulation IN VIVO, L” value in the test with dulcitol accumulation (100 mg/kg) was determined as 17%.
As to `COc1ccc2c(C(=O)N(C)CC(=O)O)c(Oc3ccccc3)ccc2c1C(F)(F)F` [Example 8, N-[[6-Methoxy-2-phenoxy-5-(trifluoromethyl)-1-naphthalenyl]carbonyl]-N-methylglycine], the inhibition at 0.04 µM at aldose reductase (4 × 10^-8 M) is 50%. In addition, at aldose reductase (10^-7 M), the inhibition at 0.1 µM was 83%. For the same molecule, on aldose reductase, the inhibition at 1 µM is 93% and the inhibition at 10 µM turned out to be 93%. Besides, in the test with dulcitol accumulation (48 mg/kg), the “% Lowering dulcitol accumulation IN VIVO, D” value is recorded as 67% and the “% Lowering dulcitol accumulation IN VIVO, L” value was “N.S”.
Consider `COc1ccc2c(C(=S)N(C)CC(=O)O)c(Cl)ccc2c1C(F)(F)F` [Example 10, N-[[2-Chloro-6-methoxy-5-(trifluoromethyl)-1-naphthalenyl]thioxomethyl]-N-methylglycine], for which the inhibition at 0.04 µM on aldose reductase (4 × 10^-8 M) came out at 51%. Further, the inhibition at 10 µM at aldose reductase (10^-5 M) worked out at 95%. Further, on aldose reductase (10^-6 M), the inhibition at 1 µM was determined as 91%. Also, on aldose reductase (10^-7 M), the inhibition at 0.1 µM was 81%. Besides, in the test on dulcitol accumulation (24 mg/kg), the “% Lowering dulcitol accumulation IN VIVO, D” value came to 90% and the “% Lowering dulcitol accumulation IN VIVO, L” value is reported as “N.S”.
Turning to `CCOc1ccc2c(C(F)(F)F)c(OC)ccc2c1C(=S)N(C)CC(=O)O` [Example 4, N-[[2-Ethoxy-6-methoxy-5-(trifluoromethyl)-1-naphthalenyl]thioxomethyl]-N-methylglycine], the inhibition at 0.04 µM at aldose reductase (4 × 10^-8 M) was found to be 50%. In addition, the inhibition at 1 µM on aldose reductase (10^-6 M) stood at 95%. On aldose reductase (10^-7 M), the inhibition at 0.1 µM is 87%. Besides, the inhibition at 10 µM at aldose reductase turned out to be 98%. In the test on dulcitol accumulation (28 mg/kg), the “% Lowering dulcitol accumulation IN VIVO, D” value is given as 85% and the “% Lowering dulcitol accumulation IN VIVO, L” value was “N.S”.
Consider `COc1ccc2c(C(=S)N(C)CC(=O)O)c(OCc3ccccc3)ccc2c1C(F)(F)F`, for which the inhibition at 0.04 µM on aldose reductase (4 × 10^-8 M) was determined as 45%. The inhibition at 0.1 µM at aldose reductase (10^-7 M) was 84%. At aldose reductase, the inhibition at 1 µM came out at 96% and the inhibition at 10 µM is 96%.
As to `CCOc1ccc2c(C(F)(F)F)c(OC)ccc2c1C(=O)N(C)CC(=O)O` [Example 6, N-[[2-Ethoxy-6-methoxy-5-(trifluoromethyl)-1-naphthalenyl]carbonyl]-N-methylglycine], the inhibition at 0.04 µM on aldose reductase (4 × 10^-8 M) worked out at 33%. In addition, the inhibition at 10 µM on aldose reductase (10^-5 M) came to 89%. Also, the inhibition at 1 µM at aldose reductase (10^-6 M) came to 89%. On aldose reductase, the inhibition at 0.1 µM amounted to 65%. Moreover, in the test on dulcitol accumulation (49 mg/kg), the “% Lowering dulcitol accumulation IN VIVO, D” value amounted to 57% and the “% Lowering dulcitol accumulation IN VIVO, L” value is given as “N.S”.
Regarding `COc1ccc2c(C(=S)N(C)CC(=O)O)c(OCC(F)(F)F)ccc2c1C(F)(F)F` [Example 5, N-[[6-Methoxy-2-(2,2,2-trifluoroethoxy)-5-(trifluoromethyl)-1-naphthalenyl]thioxomethyl]-N-methylglycine], the inhibition at 0.04 µM on aldose reductase (4 × 10^-8 M) worked out at 49%. Moreover, the inhibition at 1 µM at aldose reductase (10^-6 M) stood at 95%. In addition, the inhibition at 0.1 µM at aldose reductase (10^-7 M) was determined as 87%. Also, the inhibition at 10 µM at aldose reductase was determined as 99%. Also, in the test with dulcitol accumulation (26 mg/kg), the “% Lowering dulcitol accumulation IN VIVO, D” value is 88% and the “% Lowering dulcitol accumulation IN VIVO, L” value was “N.S”.
As for `CCCOc1ccc2c(C(F)(F)F)c(OC)ccc2c1C(=O)N(C)CC(=O)O` [Example 7, N-[[6-Methoxy-2-propoxy-5-(trifluoromethyl)-1-naphthalenyl]carbonyl]-N-methylglycine], the inhibition at 0.04 µM on aldose reductase (4 × 10^-8 M) amounted to 21%. Also, the inhibition at 0.1 µM on aldose reductase was 46%. Further, in the test with dulcitol accumulation (50 mg/kg), the “% Lowering dulcitol accumulation IN VIVO, D” value is reported as 57% and the “% Lowering dulcitol accumulation IN VIVO, L” value was “N.S”.
For `COc1ccc2c(C(=O)N(C)CC(=O)O)c(Cl)ccc2c1C(F)(F)F` [Cl O OH, N-[[2-Chloro-6-methoxy-5-(trifluoromethyl)-1-naphthalenyl]carbonyl]-N-methylglycine], on aldose reductase (4 × 10^-8 M), the inhibition at 0.04 µM amounted to 36%. The inhibition at 10 µM at aldose reductase (10^-5 M) came out at 90%. Moreover, the inhibition at 1 µM on aldose reductase (10^-6 M) came out at 87%. The inhibition at 0.1 µM at aldose reductase (10^-7 M) stood at 63%.
In the case of `COc1ccc2c(C(=S)N(C)CC(N)=O)c(F)ccc2c1C(F)(F)F` [F S NH2, [[[2-Fluoro-6-methoxy-5-(trifluoromethyl)-1-naphthalenyl]thioxomethyl]methylamino]acetamide], the inhibition at 10 µM on aldose reductase (10^-5 M) was 2%. In addition, the inhibition at 1 µM on aldose reductase (10^-6 M) came to 6%.
Consider `COc1ccc2c(C(=S)N(C)CC(=O)O)c(F)ccc2c1C(F)(F)F` [F S OH, N-[[2-Fluoro-6-methoxy-5-(trifluoromethyl)-1-naphthalenyl]thioxomethyl]-N-methylglycine], for which, at aldose reductase (4 × 10^-8 M), the inhibition at 0.04 µM is 45%. Besides, at aldose reductase, the inhibition at 1 µM was found to be 94% and the inhibition at 10 µM turned out to be 99%. Moreover, in the test with dulcitol accumulation (4.8 mg/kg), the “% Lowering dulcitol accumulation IN VIVO, D” value is listed as 86% and the “% Lowering dulcitol accumulation IN VIVO, L” value is “N.S”. Also, in the test on dulcitol accumulation (25 mg/kg), the “% Lowering dulcitol accumulation IN VIVO, D” value came out at 93% and the “% Lowering dulcitol accumulation IN VIVO, L” value was 23%.
Consider `COc1ccc2c(C(=O)N(C)CC(=O)O)c(OCC(F)(F)F)ccc2c1C(F)(F)F` [Example 3, N-[[6-Methoxy-2-(2,2,2-trifluoroethoxy)-5-(trifluoromethyl)-1-naphthalenyl]carbonyl]-N-methylglycine], for which the inhibition at 0.04 µM at aldose reductase (4 × 10^-8 M) amounted to 32%. For the same molecule, at aldose reductase (10^-6 M), the inhibition at 1 µM was determined as 91%. The inhibition at 0.1 µM on aldose reductase (10^-7 M) was 67%. Further, at aldose reductase, the inhibition at 10 µM stood at 96%.
Consider `COc1ccc2c(C(=O)N(C)CC(N)=O)c(Cl)ccc2c1C(F)(F)F` [Example 2, [[[2-Chloro-6-methoxy-5-(trifluoromethyl)-1-naphthalenyl]carbonyl]methylamino]acetamide], for which, at aldose reductase (10^-5 M), the inhibition at 10 µM is 9%. Moreover, the inhibition at 1 µM at aldose reductase (10^-6 M) came to 0%. In addition, in the test with dulcitol accumulation (24 mg/kg), the “% Lowering dulcitol accumulation IN VIVO, D” value is recorded as 53% and the “% Lowering dulcitol accumulation IN VIVO, L” value was “N.S”.

The values are drawn from patent US4962224A, “N-naphthoylglycines as aldose reductase inhibitors” (American Home Products Corporation, priority 1989, dated 1990).
